Laboratory results: the NIST ThermoML archive (doi:10.1016/j.jct.2007.08.005)

Assay: xn = mol fraction of the nth substance listed
Conditions: 308.15 K, 101 kPa, Liquid; for excess molar volume: Direct dilatometry; for speed of sound: Sing-around technique in a fixed-path interferometer

OCCCO [propan-1,3-diol] + O=C1CCCN1
Conditions | excess molar volume [m3/mol] | speed of sound [m/s] | viscosity [mPa·s]
x1 = 0.0149 | 7e-09 | – | –
x1 = 0.0255 | 1e-08 | – | –
x1 = 0.0365 | – | 1600.9 | 9.37
x1 = 0.0582 | 1.6e-08 | – | –
x1 = 0.059 | – | 1601.4 | 9.712
x1 = 0.0669 | 1.8e-08 | – | –
x1 = 0.0794 | – | 1602.1 | 9.969
x1 = 0.0811 | 1.9e-08 | – | –
x1 = 0.0944 | 1.9e-08 | – | –
x1 = 0.1005 | – | 1602.7 | 10.29
x1 = 0.1161 | 2.2e-08 | – | –
x1 = 0.133 | 2.3e-08 | – | –
x1 = 0.1451 | – | 1603.5 | –
x1 = 0.1452 | – | – | 10.9
x1 = 0.1507 | 2.5e-08 | – | –
x1 = 0.1752 | 2.6e-08 | – | –
x1 = 0.1944 | – | 1604.5 | 11.58
x1 = 0.2346 | 2.7e-08 | – | –
x1 = 0.2749 | 2.8e-08 | – | –
x1 = 0.3004 | – | 1606.2 | –
x1 = 0.3005 | – | – | 13.29
x1 = 0.3232 | 2.9e-08 | – | –
x1 = 0.399 | 2.8e-08 | – | –
x1 = 0.3994 | – | 1607.4 | 15.04
x1 = 0.4472 | 2.5e-08 | – | –
x1 = 0.4784 | 2.5e-08 | – | –
x1 = 0.4826 | 2.4e-08 | – | –
x1 = 0.4902 | – | 1608.2 | 16.76
x1 = 0.4941 | 2.4e-08 | – | –
x1 = 0.518 | 2.2e-08 | – | –
x1 = 0.537 | 2.1e-08 | – | –
x1 = 0.5552 | 2.1e-08 | – | –
x1 = 0.5751 | 1.8e-08 | – | –
x1 = 0.5828 | – | 1608.7 | 18.38
x1 = 0.6011 | 1.5e-08 | – | –
x1 = 0.6281 | 1.3e-08 | – | –
x1 = 0.6505 | 1e-08 | – | –
x1 = 0.6707 | 9e-09 | – | –
x1 = 0.6824 | 8e-09 | – | –
x1 = 0.6833 | – | 1608.8 | 20.23
x1 = 0.7028 | 4e-09 | – | –
x1 = 0.7232 | 1e-09 | – | –
x1 = 0.746 | -2e-09 | – | –
x1 = 0.7719 | -4e-09 | – | –
x1 = 0.7889 | – | 1608.3 | 22.45
x1 = 0.791 | -6e-09 | – | –
x1 = 0.8126 | -8e-09 | – | –
x1 = 0.8237 | -1e-08 | – | –
x1 = 0.8265 | – | 1607.7 | 23.24
x1 = 0.8409 | -1.3e-08 | – | –
x1 = 0.853 | -1.6e-08 | – | –
x1 = 0.8712 | -1.9e-08 | – | –
x1 = 0.8823 | -2.1e-08 | – | –
x1 = 0.8909 | – | 1606.7 | 24.43
x1 = 0.8935 | -2.2e-08 | – | –
x1 = 0.9116 | -2.4e-08 | – | –
x1 = 0.9186 | – | 1606.4 | 24.98
x1 = 0.9269 | -2.4e-08 | – | –
x1 = 0.9355 | -2.3e-08 | – | –
x1 = 0.9422 | – | 1605.8 | 25.52
x1 = 0.9476 | -2.2e-08 | – | –
x1 = 0.9599 | -2e-08 | – | –
x1 = 0.9712 | – | 1605 | 26.02
x1 = 0.9803 | -1.4e-08 | – | –
x1 = 0.9887 | -1.2e-08 | – | –
x1 = 0.9978 | -8e-09 | – | –
